According to ChEMBL document CHEMBL1156829 (Proc Natl Acad Sci U S A, 2008):

How the values were obtained:
Plasmodium falciparum [1] = assay: NOVARTIS: Inhibition of Plasmodium falciparum 3D7 (drug-susceptible) proliferation in erythrocyte-based infection assay; type: functional, organism-based; details: Plasmodium falciparum, 3D7
[2] = NOVARTIS: Cytotoxicity against human hepatocellular carcinoma cell line (Huh7); type: toxicity, cell-based, Huh-7; details: Huh7 cells (hepatocellular carcinoma cell line)
Plasmodium falciparum [3] = assay: NOVARTIS: Inhibition of Plasmodium falciparum W2 (drug-resistant) proliferation in erythrocyte-based infection assay; type: functional, organism-based; details: Plasmodium falciparum, W2; read-out: EC50

Row | SMILES | EC50 (Plasmodium falciparum [1]) | CC50 [2] | EC50 (Plasmodium falciparum [3])
1 | CCCCCCN(C(=O)c1ccccc1)C(CC)c1nc2ccccc2c(=O)n1-c1ccccc1OC (configuration not stated) | 1050 nM | > 7980 nM | 526 nM
2 | O=C(OCCOc1ccc([N+](=O)[O-])cc1)c1ccc(Br)o1 | 782 nM | > 10000 nM | > 1250 nM
3 | CC(C)c1cccc(C(C)C)c1NC(=O)N(Cc1ccccc1)C(C)c1nc2ccccc2c(=O)n1-c1ccc(Cl)cc1 (configuration not stated) | 985 nM | > 1460 nM | 1020 nM
4 | O=C(NN=Cc1ccc(Br)cc1)c1ccco1 | 11400 nM | > 100000 nM | > 12500 nM
5 | Cc1nn(C)cc1-c1nc2cnccn2c1NCC1CCCO1 (configuration not stated) | > 1250 nM | > 10000 nM | > 876 nM
6 | c1ccc(Oc2ccc(Nc3nc4nonc4nc3Nc3ccc(Oc4ccccc4)cc3)cc2)cc1 | 1760 nM | > 10000 nM | > 1250 nM
7 | Cc1ccn2c(NC(C)(C)CC(C)(C)C)c(-c3ccccc3OC(=O)c3ccc(Br)cc3)nc2c1 | 740 nM | 75000 nM | 148 nM
8 | Nc1nonc1-n1nnc(C(=O)NN=Cc2ccc(F)c(Br)c2)c1-c1ccc([N+](=O)[O-])cc1 | 292 nM | > 100000 nM | 128 nM
9 | CCCCN(CCCC)S(=O)(=O)c1ccc(NC(=O)c2ccco2)cc1 | 1420 nM | > 65700 nM | 637 nM
10 | Oc1ccccc1Nc1nc(-c2ccccc2O)nc2ccccc12 | 577 nM | > 100000 nM | 136 nM
11 | O=C(NCc1ccc2c(c1)OCO2)C1CNCC1c1ccc(C(F)(F)F)cc1 (configuration not stated) | 325 nM | 54300 nM | 362 nM
12 | O=[N+]([O-])c1cc(NC2OC(CO)C(OC3OC(CO)C(O)C(O)C3O)C(O)C2O)ccc1Cl (configuration not stated) | > 848 nM | > 10000 nM | > 1250 nM
13 | COc1cc2c(cc1O)CC[n+]1cc3c(OC)c(OC)ccc3cc1-2 [JATRORRHIZINE CHLORIDE] | 939 nM | 8940 nM | 1660 nM
14 | CCCCCCN(C(=O)c1cccc(C(F)(F)F)c1)C(CC)c1nc2ccccc2c(=O)n1-c1ccccc1OC (configuration not stated) | 793 nM | > 10000 nM | 790 nM
15 | CCOC(=O)c1c(C)n(-c2ccccc2)c2ccc(OC(=O)c3ccco3)cc12 | 607 nM | > 100000 nM | 1140 nM
16 | NC(=O)c1ccc2c(c1)N=C(/C=C/c1ccccc1)N(C1CC1)C2 | 74.7 nM | 23000 nM | 5600 nM
17 | Fc1ccc(C2(CCCSc3nnc4c(n3)[nH]c3ccccc34)OCCO2)cc1 | 400 nM | > 100000 nM | 141 nM
18 | Cc1cc(C)cc(NC2=C(c3ccccc3)C(=O)c3ccccc32)c1 | 1830 nM | > 100000 nM | 1530 nM
19 | COc1cc2c(cc1OC)C1Cc3ccc(OC)c(OC)c3CN1CC2 (configuration not stated) | 2600 nM | > 100000 nM | 871 nM
20 | COc1cc(CN2CC3CC(C2)c2cccc(=O)n2C3)ccc1O (configuration not stated) | > 12500 nM | > 100000 nM | 1210 nM
21 | CN1C=C(c2ccc3ccccc3n2)C(c2c[nH]c3ccccc23)c2ccccc21 (configuration not stated) | 1140 nM | > 100000 nM | 1210 nM
22 | O=C(c1cc([N+](=O)[O-])cc([N+](=O)[O-])c1)N1CCN(c2cccc(C(F)(F)F)c2)CC1 | 1180 nM | > 10000 nM | 1100 nM
23 | Nc1c(C(=O)c2ccc(Br)cc2)sc2nc(-c3cccnc3)ccc12 | 1300 nM | > 13000 nM | > 1090 nM

Row | SMILES | EC50 (Plasmodium falciparum [1]) | CC50 [2] | EC50 (Plasmodium falciparum [3])
24 | CSc1cccc(NC(=O)C2C3C=CC4(O3)C2C(=O)N(C2CC2)C4C(=O)NC2CCCCC2)c1 (configuration not stated) | 1750 nM | > 10000 nM | < 14.5 nM
25 | CC=Cc1n(C)c2ccccc2[n+]1C | 613 nM | > 100000 nM | 129 nM
26 | CSCCN1CCc2ccc3[nH]cc(-c4cccc(Cl)c4)c3c2C1 | 108 nM | > 10000 nM | 224 nM
27 | CCCN1CCC(N2C[C@@H](NCc3ccc4c(c3)c3ccccc3n4CC)C[C@H]2C(=O)NCC)CC1 | > 252 nM | > 6380 nM | 323 nM
28 | COc1ccc(C2=C/C(=C/c3cccc(OC)c3OC)C(=O)O2)cc1OC | 1140 nM | > 10000 nM | > 751 nM
29 | O=C(/C=C/c1ccc(-c2cccc([N+](=O)[O-])c2)o1)Nc1nccs1 | > 1250 nM | > 10000 nM | > 570 nM
30 | O=C1N(Cc2cc3ccccc3s2)CC2CN(Cc3ccc(F)c(F)c3)CCN12 (configuration not stated) | 239 nM | > 10000 nM | < 13.9 nM
31 | Cc1ccn2c(NC(C)(C)CC(C)(C)C)c(-c3ccccc3OC(=O)N(C)C)nc2c1 | 576 nM | > 10000 nM | 28.5 nM
32 | Cc1cc(N2CCN(C)CC2)nc2ccc(NC(=O)c3ccc(Br)o3)cc12 | 1680 nM | 53700 nM | 2680 nM
33 | CC12CCC(C(=O)N(CC(O)Cn3c4ccc(Cl)cc4c4cc(Cl)ccc43)C1=O)C2(C)C (configuration not stated) | 118 nM | > 100000 nM | 120 nM
34 | CCCCN1Cc2ccc(C(=O)NCCN3CCOCC3)cc2N=C1c1ccc(OC)cc1 | > 10000 nM | > 100000 nM | 4410 nM
35 | COC(=O)C1=C(C)NC(=Cc2cc(C)n(-c3cc(C)ccc3C)c2C)C1=O | 9.53 nM | > 100000 nM | 18.4 nM
36 | COc1ccc(C(NC(=O)c2cccnc2)c2cc(Cl)c3cccnc3c2O)cc1 (configuration not stated) | 945 nM | > 100000 nM | 528 nM
37 | Cc1cc(NS(=O)(=O)c2ccc(NC(=O)c3ccc([N+](=O)[O-])cc3)cc2)no1 | > 1250 nM | > 10000 nM | > 678 nM
38 | CN(C)c1ccc(/C=C2\SC(=Nc3ccc(O)cc3)NC2=O)cc1 | 1140 nM | 8590 nM | 526 nM
39 | NC(=O)C1CCCN(C(=O)COC(c2ccccc2)c2cccnc2Cl)C1 (configuration not stated) | 4810 nM | 45600 nM | > 12500 nM
40 | Cc1ccc(S(=O)(=O)N=C2C=C(Sc3nc4ccccc4[nH]3)C(=O)c3ccccc32)cc1 | 632 nM | 16800 nM | 834 nM
41 | CCCCCCCCNC(=O)C1CC1c1ccccc1 (configuration not stated) | > 10500 nM | > 100000 nM | 3490 nM
42 | Cc1ccc(C(=O)Oc2ccccc2-c2nc3ccccn3c2NC(C)(C)CC(C)(C)C)cc1[N+](=O)[O-] | 1240 nM | > 10000 nM | 67.5 nM
43 | N#CN=C(N)c1sc(Nc2ccccc2)nc1N | 806 nM | 9370 nM | 2390 nM
44 | Clc1ccccc1CN1CCc2nc(N3CCCCC3)sc2C1 | 594 nM | > 100000 nM | 2630 nM
45 | CC(C)N1CCCC(C(=O)Nc2ccc(-c3nc4ccccc4[nH]3)cc2)C1 (configuration not stated) | 969 nM | > 10000 nM | 593 nM
46 | C[n+]1cccc(C=C2c3ccccc3-c3ncccc32)c1 | 173 nM | > 100000 nM | 678 nM

Row | SMILES | EC50 (Plasmodium falciparum [1]) | CC50 [2] | EC50 (Plasmodium falciparum [3])
47 | C/C(=C\c1ccccc1)CN(C(=O)c1ccc(C(C)(C)C)cc1)C(C)C | 217 nM | > 5250 nM | 535 nM
48 | Cc1cc(-c2ccc(O)c(CN3CCCCC3CO)c2)c2ccccc2n1 (configuration not stated) | 361 nM | 59100 nM | 57.7 nM
49 | Cc1oc2c(c1C(=O)NCc1cccnc1)C(=O)c1ccccc1C2=O | 1500 nM | 1910 nM | 1750 nM
50 | CC1CCCC(NC(=O)C2N(CCN3CCCCC3C)C(=O)C3C(C(=O)Nc4cccc(Cl)c4)C4C=CC32O4)C1C (configuration not stated) | > 10400 nM | 47700 nM | 4610 nM
51 | Cc1ccc2oc(=O)c3cnn(CC(=O)Nc4ccc(F)cc4Cl)c3c2c1 | > 1150 nM | > 10000 nM | > 1250 nM
52 | O=C(Nc1cccnc1)c1cc(-c2cccnc2)nc2ccc(Cl)cc12 | 3960 nM | > 100000 nM | > 12500 nM
53 | CCCCN1C=CC=C/C1=C\c1sc2ccccc2[n+]1CC | 120 nM | 1800 nM | 226 nM
54 | Cc1ccc(NC(=O)c2sc3nc4c(c(-c5ccc(C)cc5)c3c2N)CCC4)cc1 | 2790 nM | > 100000 nM | 8940 nM
55 | CC(=O)C(=NNc1cc(C(F)(F)F)cc(C(F)(F)F)c1)C(C)=O | > 1250 nM | > 10000 nM | 26.7 nM
56 | COCCOC(=O)NCc1ccc(Nc2c(C(C)(C)C)nc3cnccn23)cc1 | 102 nM | > 10000 nM | 15.5 nM
57 | O=C1c2ccccc2-n2c1nc1ccccc1c2=O [TRYPTANTHRIN] | 212 nM | > 10000 nM | 276 nM
58 | CCOC(=O)C1CCN(C(=O)c2c(C)oc3c2C(=O)c2ccccc2C3=O)CC1 | 201 nM | 22200 nM | 103 nM
59 | O=C(CSc1nc(NCc2ccccc2)c2ccccc2n1)NCc1ccco1 | 254 nM | > 10000 nM | 378 nM
60 | O=C(Nc1ccon1)c1cc(-c2cccnc2)nc2ccc(Cl)cc12 | 1500 nM | > 100000 nM | 606 nM
61 | Fc1ccc(Nc2nc(NCC3CCCO3)c3ccccc3n2)cc1 (configuration not stated) | 214 nM | 9530 nM | 282 nM
62 | CN(C)c1nc(Cl)nc(N(C#N)CCOc2ccccc2)n1 | > 703 nM | > 10000 nM | > 1250 nM
63 | N#Cc1c(N)nc(SCC(=O)c2ccc([N+](=O)[O-])cc2)c(C#N)c1-c1ccccc1 | 4810 nM | > 100000 nM | 1840 nM
64 | O=C(COC(c1cccs1)c1cccnc1Cl)N1CCN(CCO)CC1 (configuration not stated) | > 12500 nM | > 100000 nM | 1290 nM
65 | Cc1oc2c(c1C(=O)N1CCCC1)C(=O)c1ccccc1C2=O | 2370 nM | 9860 nM | 1050 nM
66 | CC(C)C1N=C2c3ccccc3N=C(SCC(=O)Nc3cc(C(F)(F)F)ccc3Cl)N2C1=O (configuration not stated) | 5910 nM | > 100000 nM | > 12500 nM
67 | CCCCN(C)Cc1ccc2c(NC(=O)c3ccc(C)s3)c(C(=O)OC)sc2n1 | 542 nM | 1520 nM | 461 nM
68 | COc1ccc(/C=C2/SC(=Nc3ccccc3)NC2=O)cc1 | 292 nM | > 100000 nM | 332 nM
69 | COc1ccc2nc(C)cc(Nc3ccc(Cl)cc3)c2c1 | 1230 nM | 18300 nM | 2680 nM
